Data as given in patent US10555960B2, “Use of an aminoglycoside for nonsense mutation suppression and the treatment of disease” (PTC Therapeutics, Inc., priority 2015, dated 2020).
Where a name gives a salt, the structure may show the parent alone. Read-outs that look alike come from different tables or passages of the source.

System: premature stop codon
Experiment: Premature stop codon readthrough (nonsense suppression), full length protein production by enzyme-linked immunosorbent assay
Assay type: cell-based
Method: Table 1 also provides the median maximum fold increase of the full length protein production over DMSO-treated samples as also determined by enzyme-linked immunosorbent assay within the concentration range tested (up to 1 mM).

[1] = median, enzyme-linked immunosorbent assay, concentration range tested up to 1 mM
[2] = median, enzyme-linked immunosorbent assay, within concentration range tested (up to 1 mM)

Compound | EC2X (median concentration that doubles the intensity of the nonsense suppression) [1] | Max Fold over DMSO (median maximum fold increase of full length protein production over DMSO-treated samples) [2] | EC2X (median concentration that doubles the intensity of the nonsense suppression) | Max Fold over DMSO (median maximum fold increase of full length protein production over DMSO-treated samples)
CN[C@@H]1[C@@H](O)[C@@H](O[C@@H]2[C@@H](O)[C@H](O[C@H]3O[C@H](CO)[C@@H](O)[C@H](O)[C@H]3N)[C@@H](N)C[C@H]2N)OC[C@H]1O [Gentamicin A sulfate] | 566 µM | 4.1 | – | –
CN[C@@H]1[C@@H](O)[C@@H](O[C@@H]2[C@@H](O)[C@H](O[C@H]3O[C@H](CO)[C@@H](O)[C@H](O)[C@H]3N)[C@@H](N)C[C@H]2N)OC[C@]1(C)O [Compound 1 sulfate, (2R,3S,4R,5R,6S)-5-amino-6-(((1R,2S,3S,4R,6S)-4,6-diamino-3-(((2R,3R,4R,5R)-3,5-dihydroxy-5-methyl-4-(methylamino)tetrahydro-2H-pyran-2-yl)oxy)-2-hydroxycyclohexyl)oxy)-2-(hydroxymethyl)tetrahydro-2H-pyran-3,4-diol] | 19 µM | 47 | – | –
Gentamicin C1a sulfate | – | – | 135 µM | 2.6
CN[C@@H]1[C@@H](O)[C@@H](O[C@@H]2[C@@H](O)[C@H](O[C@H]3O[C@H]([C@@H](C)N)CC[C@H]3N)[C@@H](N)C[C@H]2N)OC[C@]1(C)O [Gentamicin C2 sulfate] | 95 µM | 5.5 | – | –
CN[C@@H]1[C@@H](O)[C@@H](O[C@@H]2[C@@H](O)[C@H](O[C@H]3O[C@H]([C@H](C)N)CC[C@H]3N)[C@@H](N)C[C@H]2N)OC[C@]1(C)O.O=S(=O)(O)O [Gentamicin C2a sulfate] | 260 µM | 3.1 | – | –
CN[C@@H]1[C@@H](O)[C@@H](O[C@@H]2[C@@H](O)[C@H](O[C@H]3O[C@H]([C@@H](C)NC)CC[C@H]3N)[C@@H](N)C[C@H]2N)OC[C@]1(C)O.O=S(=O)(O)O [Gentamicin C1 sulfate] | 100 µM | 3.7 | – | –
